Source: patent US6413935B1, “Induction of immune response against desired determinants” (priority 1993, dated 2002)
Like-named read-outs stand apart in the source and are kept apart here. Non-standard residues stand in square brackets, D forms with d. Residues, ends and D or L forms follow the SMILES beside them. Cha = N[C@@H](CC1CCCCC1)C(=O)O

How the values were obtained:
DR3 = DR3 (Homo sapiens, UniProt P01903+P01911, A100K/A102G/A103R/A169T/F55Y/I96L/K41T/L162R/M171V/P40S/Q125H/Q178H/Q39Y/R42S/S66N/T106N/T262R/W38E/Y61H); settings: Table VIII A
DR7 = settings: for IC50: read-out: PADRE Class II Binding Affinities DR7
C57BL/6J (H-2^b+) mice = settings: mouse, in vivo
IE^k = type: binding, mouse; settings: read-out: Capacity to bind purified IE^k, IC50
human PBMC T cell lines = type: cell-based
IA^s = target: T1, IA^s (Mus musculus, UniProt P06345+P14437); test: biochemical; type: binding; settings: Table III; read-out: Capacity to bind purified IA^s, IC50
T1 construct: Various cell lines were used as sources of purified human and mouse class II molecules; endogenous in cells; host or cells: LS102.9
T1 sequence (P14437 1-233): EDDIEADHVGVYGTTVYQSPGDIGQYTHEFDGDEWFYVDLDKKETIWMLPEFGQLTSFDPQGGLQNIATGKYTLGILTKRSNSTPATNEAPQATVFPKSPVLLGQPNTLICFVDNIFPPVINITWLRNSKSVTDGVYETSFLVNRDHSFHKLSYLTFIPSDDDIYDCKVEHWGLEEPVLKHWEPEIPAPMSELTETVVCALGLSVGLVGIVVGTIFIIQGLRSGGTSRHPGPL
T1 sequence (P06345 28-263): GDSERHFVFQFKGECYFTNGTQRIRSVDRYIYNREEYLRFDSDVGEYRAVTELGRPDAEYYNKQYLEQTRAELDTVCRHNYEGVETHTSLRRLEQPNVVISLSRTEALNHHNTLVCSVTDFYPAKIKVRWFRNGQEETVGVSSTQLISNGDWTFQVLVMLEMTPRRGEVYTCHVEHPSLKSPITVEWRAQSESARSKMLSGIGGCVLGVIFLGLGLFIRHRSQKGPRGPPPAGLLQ

IE^d = target: T2, IE^d (Mus musculus, UniProt P01904+P01915); test: biochemical; type: binding
T2 construct: Various cell lines were used as sources of purified human and mouse class II molecules; endogenous in cells; host or cells: A20
T2 sequence (P01904 26-255): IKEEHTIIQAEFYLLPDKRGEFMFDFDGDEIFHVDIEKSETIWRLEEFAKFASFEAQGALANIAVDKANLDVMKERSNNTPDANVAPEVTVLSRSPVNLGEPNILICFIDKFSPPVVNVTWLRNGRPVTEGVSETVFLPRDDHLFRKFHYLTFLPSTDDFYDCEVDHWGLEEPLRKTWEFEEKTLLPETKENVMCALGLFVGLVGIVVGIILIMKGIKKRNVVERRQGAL
T2 sequence (P01915 27-264 limits assumed): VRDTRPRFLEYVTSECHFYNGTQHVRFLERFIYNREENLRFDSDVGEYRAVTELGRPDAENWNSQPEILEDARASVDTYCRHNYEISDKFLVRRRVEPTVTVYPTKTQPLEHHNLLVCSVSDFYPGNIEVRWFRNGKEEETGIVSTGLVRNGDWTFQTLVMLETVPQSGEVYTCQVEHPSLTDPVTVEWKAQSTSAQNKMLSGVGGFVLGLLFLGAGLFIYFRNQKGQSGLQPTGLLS

IA^b = target: T3, IA^b (Mus musculus, UniProt P14434+P14483); test: biochemical; type: binding
T3 construct: Various cell lines were used as sources of purified human and mouse class II molecules; endogenous in cells; host or cells: DB27.4
T3 sequence (P14434 24-256): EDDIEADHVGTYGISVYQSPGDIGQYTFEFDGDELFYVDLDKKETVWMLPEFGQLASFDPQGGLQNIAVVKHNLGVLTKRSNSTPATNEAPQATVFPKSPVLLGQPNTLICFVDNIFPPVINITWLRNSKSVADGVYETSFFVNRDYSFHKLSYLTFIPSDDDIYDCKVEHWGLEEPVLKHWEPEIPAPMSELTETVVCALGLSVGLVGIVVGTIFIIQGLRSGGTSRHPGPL
T3 sequence (P14483 28-265): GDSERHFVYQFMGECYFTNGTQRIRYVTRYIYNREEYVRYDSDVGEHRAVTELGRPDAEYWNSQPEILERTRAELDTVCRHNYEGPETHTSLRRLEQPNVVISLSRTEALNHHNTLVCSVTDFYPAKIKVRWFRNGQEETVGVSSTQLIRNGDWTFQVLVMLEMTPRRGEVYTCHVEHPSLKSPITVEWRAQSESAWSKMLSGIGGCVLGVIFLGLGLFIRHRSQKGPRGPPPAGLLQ

IA^d = target: T4, IA^d (Mus musculus, UniProt P01921+P04228); test: biochemical; type: binding; settings: Table III; read-out: Capacity to bind purified IA^d, IC50
T4 construct: Various cell lines were used as sources of purified human and mouse class II molecules; endogenous in cells; host or cells: A20
T4 sequence (P04228 24-256): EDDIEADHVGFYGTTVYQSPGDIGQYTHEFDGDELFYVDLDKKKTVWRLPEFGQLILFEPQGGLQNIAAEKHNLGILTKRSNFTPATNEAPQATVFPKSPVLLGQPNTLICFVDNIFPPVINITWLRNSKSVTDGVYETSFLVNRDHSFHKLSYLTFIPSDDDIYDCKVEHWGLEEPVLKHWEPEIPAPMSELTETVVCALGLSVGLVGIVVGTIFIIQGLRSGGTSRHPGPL
T4 sequence (P01921 28-265): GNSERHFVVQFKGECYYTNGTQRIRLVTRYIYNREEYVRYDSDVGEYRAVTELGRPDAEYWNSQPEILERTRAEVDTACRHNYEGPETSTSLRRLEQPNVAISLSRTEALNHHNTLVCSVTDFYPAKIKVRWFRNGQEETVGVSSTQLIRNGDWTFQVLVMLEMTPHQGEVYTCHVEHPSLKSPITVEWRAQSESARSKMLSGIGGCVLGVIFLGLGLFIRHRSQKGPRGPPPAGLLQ

IA^k = target: T5, IA^k (Mus musculus, UniProt P01910+P06343); test: biochemical; type: binding; settings: Table III; read-out: Capacity to bind purified IA^k, IC50
T5 construct: Various cell lines were used as sources of purified human and mouse class II molecules; endogenous in cells; host or cells: CH12

DRw53 = DRw53 (Homo sapiens, UniProt P01903+P13762)
[1] = Table III, read-out: Capacity to bind purified IE^d, IC50

T5 sequence (P01910 24-256): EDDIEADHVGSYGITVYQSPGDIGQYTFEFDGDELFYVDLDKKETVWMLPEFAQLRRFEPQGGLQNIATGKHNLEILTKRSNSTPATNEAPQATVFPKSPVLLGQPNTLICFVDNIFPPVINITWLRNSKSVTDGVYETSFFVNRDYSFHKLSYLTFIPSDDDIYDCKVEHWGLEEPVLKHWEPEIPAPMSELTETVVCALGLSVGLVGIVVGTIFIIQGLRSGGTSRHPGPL
T5 sequence (P06343 28-263): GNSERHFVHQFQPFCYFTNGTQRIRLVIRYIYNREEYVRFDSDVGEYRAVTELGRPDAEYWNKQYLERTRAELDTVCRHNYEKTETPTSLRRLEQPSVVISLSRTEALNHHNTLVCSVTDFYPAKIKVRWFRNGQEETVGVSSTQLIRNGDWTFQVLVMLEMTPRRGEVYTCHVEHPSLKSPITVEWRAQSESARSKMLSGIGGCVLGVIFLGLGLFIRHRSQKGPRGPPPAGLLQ
DRw53, sequence (P01903 26-254): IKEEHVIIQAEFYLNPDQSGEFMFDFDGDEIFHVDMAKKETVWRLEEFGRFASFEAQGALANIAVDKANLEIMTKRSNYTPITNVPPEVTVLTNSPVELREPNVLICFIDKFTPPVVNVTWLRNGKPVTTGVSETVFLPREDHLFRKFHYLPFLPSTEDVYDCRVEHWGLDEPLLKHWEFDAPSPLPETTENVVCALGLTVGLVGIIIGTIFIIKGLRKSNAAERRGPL
DRw53, sequence (P13762 30-266): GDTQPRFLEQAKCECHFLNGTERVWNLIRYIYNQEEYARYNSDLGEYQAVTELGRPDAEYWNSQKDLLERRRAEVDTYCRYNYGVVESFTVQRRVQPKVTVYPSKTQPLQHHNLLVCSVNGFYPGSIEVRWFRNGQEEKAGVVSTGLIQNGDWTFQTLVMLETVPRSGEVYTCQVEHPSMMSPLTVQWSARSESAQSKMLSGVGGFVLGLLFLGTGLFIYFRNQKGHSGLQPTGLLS
DR3, sequence (P01903 26-254): as the sequence (P01903 26-254) above
DR3, sequence (P01911 30-266 with the stated changes): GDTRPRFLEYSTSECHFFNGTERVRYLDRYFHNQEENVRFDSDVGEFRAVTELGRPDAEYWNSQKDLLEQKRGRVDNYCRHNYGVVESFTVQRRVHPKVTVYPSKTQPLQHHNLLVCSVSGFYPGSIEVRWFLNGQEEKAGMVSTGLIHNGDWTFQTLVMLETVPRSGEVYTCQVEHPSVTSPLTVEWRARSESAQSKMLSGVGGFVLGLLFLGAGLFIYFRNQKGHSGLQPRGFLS

Compound: CC(C)C[C@H](NC(=O)[C@@H](NC(=O)[C@H](C)NC(=O)[C@H](CCC(N)=O)NC(=O)[C@H](C)NC(=O)[C@H](C)NC(=O)[C@H](CC1CCCCC1)NC(=O)[C@H](C)NC(=O)[C@@H](C)N)[C@@H](C)O)C(=O)N[C@@H](CCCCN)C(=O)N[C@@H](C)C(=O)N[C@@H](C)C(=O)N[C@H](C)C(N)=O [Peptide 906.20] (H-[dA]A[Cha]AAQATLKAA[dA]-NH2; N-terminus and C-terminus assumed)
- PADRE Class II Binding Affinities DR3 (DR3): loss of DR3 binding
- IC50 (DQ3.1; read-out: PADRE Class II Binding Affinities, Table VIII A): 652 nM
- IC50 (DR5; read-out: PADRE Class II Binding Affinities DR5, Table VIII A): 4.1 nM
- IC50 (DR7; Table VIII A): 2500 nM
- Loss of DR7 binding reactivity (DR7; relative to parent 760.57): 30 fold

Compound: CC(C)C[C@H](NC(=O)[C@@H](NC(=O)[C@H](Cc1c[nH]c2ccccc12)NC(=O)[C@H](C)NC(=O)[C@H](C)NC(=O)[C@@H](NC(=O)[C@H](CC1CCCCC1)NC(=O)[C@H](CCCCN)NC(=O)[C@@H](C)N)C(C)C)[C@@H](C)O)C(=O)N[C@@H](CCCCN)C(=O)N[C@@H](C)C(=O)N[C@@H](C)C(=O)N[C@H](C)C(N)=O [Peptide 965.10]
- Effective immunizing dose (C57BL/6J (H-2^b+) mice): 0.05 μg/mouse
- IC50 (IE^k; Table III): 326 nM
- Donors with significant (>10,000 cpm) T cell response / donors tested, second stimulation (human PBMC T cell lines): 9/12 and all 5 individuals
- Donors with significant (>10,000 cpm) T cell response / donors tested, third stimulation (human PBMC T cell lines): 11 of 12 and all 5 individuals

Compound: CC[C@H](C)[C@H](NC(=O)CNC(=O)[C@H](Cc1ccc(O)cc1)NC(=O)[C@H](CC(=O)O)NC(=O)[C@@H](NC(=O)[C@H](CO)NC(=O)CNC(=O)[C@H](CC(=O)O)NC(=O)[C@@H](NC(=O)[C@@H](N)CC(N)=O)[C@@H](C)O)[C@@H](C)O)C(=O)N[C@@H](CC(C)C)C(=O)N[C@@H](CCC(N)=O)C(=O)N[C@H](C(=O)N[C@@H](CC(N)=O)C(=O)N[C@@H](CO)C(=O)N[C@@H](CCCNC(=N)N)C(=O)O)[C@@H](C)CC [HEL46-61]
- IC50 (IA^s): > 10000 nM
- IC50 (IE^d; [1]): 8500 nM
- IC50 (IA^b): 7000 nM
- IC50 (IA^d): 1220 nM
- IC50 (IA^k): 20 nM

Compound: CC[C@H](C)[C@H](NC(=O)[C@H](C)NC(=O)[C@H](CCCCN)NC(=O)[C@H](CC(C)C)NC(=O)[C@H](CCCNC(=N)N)NC(=O)[C@H](CCCNC(=N)N)NC(=O)[C@H](C)NC(=O)[C@H](CC(=O)O)NC(=O)[C@H](CCC(=O)O)NC(=O)[C@H](CC(C)C)NC(=O)[C@@H](N)Cc1ccc(O)cc1)C(=O)N[C@@H](Cc1ccc(O)cc1)C(=O)N[C@@H](CCC(=O)O)C(=O)N[C@@H](CCCCN)C(=O)N[C@@H](CCCCN)C(=O)N[C@@H](CCCCN)C(=O)O [Iambda rep 12-26]
- IC50 (IA^s): > 10000 nM
- IC50 (IE^d; Allele IEd, read-out: Avg. IC50 of assay standard): 170 nM
- IC50 (IA^b): > 10000 nM
- IC50 (IA^d): 1100 nM
- IC50 (IA^k): > 10000 nM

Compound: CC[C@H](C)[C@H](NC(=O)[C@@H]1CCCN1C(=O)[C@H](C)NC(=O)[C@H](CC(N)=O)NC(=O)[C@@H]1CCCN1C(=O)[C@@H]1CCCN1C(=O)[C@H](CCCNC(=N)N)NC(=O)[C@H](Cc1ccc(O)cc1)NC(=O)[C@H](C)NC(=O)[C@@H]1CCCN1C(=O)[C@@H]1CCCN1C(=O)[C@@H](N)[C@@H](C)O)C(=O)N[C@@H](CC(C)C)C(=O)O [HBVc 128-140, reference compound]
- IC50 (IE^k; Table III): > 10000 nM

Compound: CC(C)C[C@H](NC(=O)[C@@H](NC(=O)[C@H](C)NC(=O)[C@H](CCC(=O)O)NC(=O)[C@H](C)NC(=O)[C@H](C)NC(=O)[C@H](CC1CCCCC1)NC(=O)[C@H](C)NC(=O)[C@@H](C)N)[C@@H](C)O)C(=O)N[C@@H](CCCCN)C(=O)N[C@@H](C)C(=O)N[C@@H](C)C(=O)N[C@H](C)C(N)=O [Peptide 906.19]
- Increase in DR53 reactivity (DRw53): 20 fold
- IC50 (DR5; read-out: PADRE Class II Binding Affinities DR5): 6.5 nM
- PADRE Class II Binding Affinities DR7 (DR7): DR7 reactivity was lost
- IC50 (DR7): 250000 nM

Compound: CC(C)C[C@H](NC(=O)[C@H](Cc1c[nH]c2ccccc12)NC(=O)[C@H](CCCCN)NC(=O)CNC(=O)[C@H](CC(C)C)NC(=O)[C@H](CO)NC(=O)[C@@H](N)Cc1c[nH]cn1)C(=O)NCC(=O)N[C@@H](Cc1c[nH]cn1)C(=O)N1CCC[C@H]1C(=O)N[C@@H](CC(=O)O)C(=O)N[C@@H](CCCCN)C(=O)N[C@@H](Cc1ccccc1)C(=O)O [PLP 139-151]
- IC50 (IA^s): 86 nM
- IC50 (IE^d; [1]): > 10000 nM
- IC50 (IA^b): > 3100 nM
- IC50 (IA^d): > 10000 nM
- IC50 (IA^k): > 10000 nM

Compound: aKFVAAWTLKAAa [Peptide 1024.03]
- IC50 (DQ3.1; read-out: Capacity to bind purified DQ3.1, IC50): 23 nM
- Effective immunizing dose (C57BL/6J (H-2^b+) mice): 0.05 μg/mouse
- IC50 (DR5; read-out: Binding capacity DR5, IC50): 18 nM
- IC50 (IE^k): 3500 nM

Compound: CC[C@H](C)[C@H](NC(=O)CNC(=O)[C@@H](NC(=O)[C@H](Cc1ccccc1)NC(=O)[C@H](CCCCN)NC(=O)[C@H](CO)NC(=O)[C@H](CC(N)=O)NC(=O)[C@H](C)NC(=O)[C@H](CCCCN)NC(=O)[C@@H](NC(=O)[C@H](Cc1ccc(O)cc1)NC(=O)[C@@H](N)CCC(N)=O)[C@@H](C)CC)[C@@H](C)CC)C(=O)N[C@H](C(=O)N[C@@H](CCC(=O)O)C(=O)O)[C@@H](C)O [Tet Tox 830-843, reference compound]
- T cell proliferative response of primed lymph node cells (C57BL/6J (H-2^b+) mice; sc): unable to generate a specific T cell proliferative response
- Capacity to bind purified IA^b, IC50 (IA^b): did not bind IA^b appreciably
- Donors with significant (>10,000 cpm) T cell response / donors tested, second stimulation (human PBMC T cell lines): 3/12
- Donors with significant (>10,000 cpm) T cell response / donors tested, third stimulation (human PBMC T cell lines): 7/12
